{
  "source": "patent US20200330456A1",
  "about": "“NOVEL APPLICATION OF GZD824 AND PHARMACEUTICALLY ACCEPTABLE SALTS THEREOF IN TREATING DISEASES” (HEALTHQUEST PHARMA INC., priority 2016, published 2020)",
  "key": {"[1]": {"test_system": "SUPB15 (Ph-positive acute lymphoblastic leukemia cell line)", "assay": "CCK8 cell activity test, SUPB15", "assay_type": "cell-based", "settings": "GZD824 0-3 μM/L, 24 hours", "protocol": "1.1 Two types of cells, i.e. NALM6 (Ph-negative acute lymphoblastic leukemia cell line) and SUPB15 (Ph-positive acute lymphoblastic leukemia cell line), were treated with GZD824 of different concentrations (0-3 μM/L) respectively. After 24 hours, CCK8 is added. The mixture was incubated for 2 hours, and then its absorption value at 450 nm was detected with a microplate reader. […] We plotted a chart of cell activity based on the growth inhibition function of GZD824 on these […] types of cells, which is as shown in FIG. 1."}, "SUPB15 cells [2]": {"test_system": "SUPB15 cells", "assay": "Apoptosis kit (ANNEXIN V, PI) flow cytometry, SUPB15", "assay_type": "cell-based", "settings": "3 μM, 1 μM, 24 hours, vs DMSO", "protocol": "1.2 After treating NALM6 and SUPB15 cells respectively with GZD824 (3 μM, 1 μM) and DMSO of different concentrations for 24 hours, apoptosis was detected using an apoptosis kit (ANNEXIN V, PI). Please refer to FIG. 2 for the results. After treating the two types of cells NALM6 and SUPB15 respectively with GZD824 of different concentrations (3 μM/L, 1 μM/L) for 24 hours, the cells were stained with the apoptosis kit (ANNEXIN V, PI), and apoptosis was detected with flow cytometry."}, "SUPB15 cells [3]": {"test_system": "SUPB15 cells", "assay": "Cell cycle by flow cytometry, SUPB15", "assay_type": "cell-based", "settings": "3 μM/L, 24 hours, vs DMSO", "protocol": "1.3 After treating the two types of cells, i.e. NALM6 and SUPB15, with GZD824 (3 μM/L) and DMSO respectively for 24 hours and then treating them with a cell cycle kit, the cell cycle was measured with flow cytometry. […] Please refer to FIG. 3 for the results."}, "[4]": {"test_system": "primary pre-B ALL PDX in immunodeficient mouse (NSI)", "assay": "PDX mouse model, spleen size and weight", "assay_type": "in vivo", "settings": "two weeks", "text": "3.1 According to the conventional method, the primary leukemia cells from patients were transplanted to immunodeficient mouse (NSI) to construct PDX mouse model. Two months after the transplantation, leukemia cells from patients account for over 95% of the mouse spleen. 1×10^6 leukemia cells originated from the spleen of the PDX mouse (P #1, P #2 and P #3) were transplanted through caudal vein to the NSI mouse bodies of eight weeks old and treated with a semilethal irradiation dose. The mice were divided into three groups with three mice in each group. When the ratio of human CD45 reaches 1%±0.2% of peripheral blood leukocyte of PDX mice by flow cytometry, the PDX mice were treated with GZD824 (25 mg/kg), Imatinib (50 mg/kg) and DMSO respectively for two weeks and then executed. […] Please refer to FIG. 6 for the results. […] 3.2 The primary leukemia cells from patients were transplanted to immunodeficient mouse (NSI) to construct PDX mouse model. 1×10^6 leukemia cells originated from PDX mouse (P #4 and P #5) were transplanted through caudal vein to the NSI mouse bodies of eight weeks old and treated with semilethal irradiation dose. The mice were divided into three groups with three mice in each group. […]"}, "[5]": {"test_system": "primary pre-B ALL PDX in immunodeficient mouse (NSI)", "assay": "PDX mouse model, Giemsa / Hematoxylin-eosin staining of blood, spleen and marrow", "assay_type": "in vivo", "settings": "PDX patient P #2; vs Imatinib and DMSO", "protocol": "3.3 After executing mice in GZD824, Imatinib or DMSO groups, blood (upper FIG. 8), spleen (middle FIG. 8) and marrow (lower FIG. 8) tissues were stained with Giemsa staining or Hematoxylin-eosin staining method. 10-20 μL of mouse blood drop was pipetted to a glass slide, and evenly spread on the slide, dried in shade at room temperature, stained with Giemsa working fluid for 15 minutes and eluted with eluents. After being fixed with neutral formaldehyde for 24 hours, the mouse spleen and marrow were dehydrated, made transparent, waxed, embedded, sliced, stained and then observed with a microscope."}, "phosphorylated STAT3": {"test_system": "phosphorylated STAT3", "assay": "Western blot of NALM6 cells, phospho-STAT3", "assay_type": "cell-based", "settings": "3 μM/L, 1 μM/L, 24 hours", "protocol": "(§1) 5.1. NALM6 cells treated with GZD824 were detected by Western blot method. After treating NALM6 cells with GZD824 of different concentrations (3 μM/L, 1 μM/L) for 24 hours, cells were collected and lysed to extract proteins. According to procedure of Western blot method, the extracted total proteins were analyzed with phospho-SRC, SRC, phospho-STAT3, STAT3, phospho-Rb, Rb and c-Myc antibodies. […] From the protein perspective, GZD824 kills leukemia cells through suppressing SRC/STAT3 signal pathway. Please refer to FIG. 13 for the experimental results."}, "phosphorylated Rb": {"test_system": "phosphorylated Rb", "assay": "Western blot of NALM6 cells, phospho-Rb", "assay_type": "cell-based", "settings": "3 μM/L, 1 μM/L, 24 hours", "protocol": "as §1"}, "CCND1 gene expression": {"test_system": "CCND1 gene expression", "assay": "Fluorescence quantitative PCR in NALM6 cells, CCND1", "assay_type": "cell-based", "settings": "3 μM/L, 24 hours, vs DMSO", "protocol": "5.2 After being treated with 3 μM/L GZD824 and DMSO for 24 hours, NALM6 cells were collected to 1 ml TRIzol to extract RNA and reversely transcribed into cDNA. The expressions of four genes, i.e. BCL-XL, CCND1, CDK4 and CCKN1A, in these two groups of cells were detected with the fluorescence quantitative PCR method. […] From the molecular perspective, the mechanism of GZD824 killing leukemia cells can be explained. For the experimental results, please refer to FIG. 14."}, "[6]": {"test_system": "human primary leukemia cells from P #2 PDX mouse", "assay": "Apoptosis of human primary leukemia cells from P #2 PDX mouse blood, spleen and marrow", "assay_type": "cell-based", "settings": "P #2 PDX cells; 1 μM/L, 24 hours", "protocol": "6.1 Human primary leukemia cells were collected from P #2 PDX mouse blood, spleen and marrow and the leukemia cells originated from these three different mouse organs were co-cultured with 1 μM/L GZD824 or DMSO for 24 hours. The ratios of ANNEXIN V positive cells were analyzed by statistical methods. […] Please refer to FIG. 16 for the results."}},
  "data": [
    {"smiles": "Cc1ccc(C(=O)Nc2ccc(CN3CCN(C)CC3)c(C(F)(F)F)c2)cc1C#Cc1cnc2[nH]ncc2c1", "note": "[GZD824, (3-((1H-pyrazol[3,4-b]pyridine-5-substituted)ethinyl)-4-methyl-N-(4-((4-methylpiperazine-1-substituted)methyl)-3-(trifluoromethyl)phenyl)benzamide)]", "values": [
      {"measurement": "cell activity (CCK8, absorption at 450 nm)", "setting": "[1]", "value": "prominently decrease the cell activity"},
      {"measurement": "apoptosis (ANNEXIN V positive cells)", "setting": "SUPB15 cells [2]", "value": "prominently enhance apoptosis"},
      {"measurement": "ratio of cells at G0/G1 phase", "setting": "SUPB15 cells [3]", "value": "increase the ratio of these two types of cells at G0/G1 phase"},
      {"measurement": "sizes of mouse spleens", "setting": "[4]; PDX P #1, P #2, P #3, GZD824 25 mg/kg, vs Imatinib (50 mg/kg) and DMSO groups", "value": "prominently smaller than those of the other two groups"},
      {"measurement": "sizes of mouse spleens", "setting": "[4]; PDX P #4 and P #5, vs Imatinib and DMSO groups", "value": "no prominent difference from those of the other two groups"},
      {"measurement": "infiltration of primary leukemia cells in mouse blood, spleen and marrow (staining)", "setting": "[5]", "value": "prominently decrease the infiltration of the primary leukemia cells"},
      {"measurement": "expression of phosphorylated STAT3", "setting": "phosphorylated STAT3", "value": "suppresses the expression"},
      {"measurement": "expression of phosphorylated Rb", "setting": "phosphorylated Rb", "value": "suppresses the expression"},
      {"measurement": "expression of CCND1 gene", "setting": "CCND1 gene expression", "value": "down-regulated"},
      {"measurement": "ratio of apoptosis of leukemia cells originated from the mouse marrow, compared with blood and spleen", "setting": "[6]", "value": "lowest"}
    ]}
  ]
}
